Assay [1] relates to OCI-AML3 (Acute Myeloid Leukemia). In words: Bliss excess, mean over the matrix (fraction); higher = more synergy. The procedure, abridged:
(§1)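 After 24 hours at 37°C and 5% CO2 in 1536-well plates, cells in DMEM/F12 or RPMI plus 10% FBS received two-drug dose matrices for 72 hours. Viability came from CellTiter-Glo 2.0 luminescence and was scaled as inhibition, anchored at 0 by vehicle wells and at 1 by blank wells. Combination Emax is taken as the second-highest inhibition in the matrix, and Bliss excess as the observed combination effect less EA + EB − EA·EB, with EA and EB the single-agent effects.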

For assay [2] the test system is unchanged. In words: combination Emax (second highest fraction inhibited in the dose matrix, 72 h); higher = more inhibition; extreme values may be limits of the assay. The procedure, abridged:
as §1

For assay [3], the system named is ESO51 (Esophageal Adenocarcinoma). Briefly: Bliss excess, mean over the matrix (fraction); higher = more synergy. The procedure, abridged:
as §1

The next assay relates to G-361 (Melanoma). The description is as above. Put shortly:
as §1

These results are taken from the supplement of paper PMC11061612.
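For Bliss excess, mean over the matrix in this document: after 72 h of two-drug dosing.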

In the case of `CS(=O)(=O)CCNCc1ccc(-c2ccc3ncnc(Nc4ccc(OCc5cccc(F)c5)c(Cl)c4)c3c2)o1` [Lapatinib] + NC1(c2ccc(-c3nc4ccn5c(=O)[nH]nc5c4cc3-c3ccccc3)cc2)CCC1 [MK-2206] (first compound max 10 µM, 7x7, partner max 10 µM), the Bliss excess in assay [1] was 0.0739. The “combination Emax” value in assay [2] turned out to be 0.683.

With `COc1nnc2ccc(N3CCC(c4ccc(OCCN5CCN(C)C(=O)[C@H]5C)cc4)CC3)nn12` [AZD5153] + Cc1c2c(nn1C)CSCc1cc(n(C)n1)CSc1cc(c3ccccc3c1)OCCCc1c(C(=O)O)n(C)c3c-2c(Cl)ccc13 [AZD5991] (first compound max 1 µM, 7x7, partner max 1 µM), the Bliss excess in assay [1] is -0.0565; in assay [3] it was -0.0093; with G-361 (Melanoma), 0.0501. In addition, in assay [2], the “combination Emax” value is 1.

As to `Cc1nc(Nc2ncc(C(=O)Nc3c(C)cccc3Cl)s2)cc(N2CCN(CCO)CC2)n1` [Dasatinib] + CC(=O)Nc1cccc(-n2c(=O)n(C3CC3)c(=O)c3c(Nc4ccc(I)cc4F)n(C)c(=O)c(C)c32)c1 [Trametinib] (first compound max 2 µM, 7x7, partner max 1 µM), the Bliss excess is -0.0745 in assay [1], -0.0066 in assay [3] and -0.0282 in the assay on G-361 (Melanoma). In assay [2], the “combination Emax” value is 0.942.

`COc1nnc2ccc(N3CCC(c4ccc(OCCN5CCN(C)C(=O)[C@H]5C)cc4)CC3)nn12` [AZD5153] + C[C@@H]1COCCN1C2=NC(=NC(=C2)C3(CC3)[S@](=N)(=O)C)C4=C5C=CNC5=NC=C4 [AZD6738] (first compound max 1 µM, 7x7, partner max 10 µM): the Bliss excess is -0.0454 in assay [1], -0.0476 in assay [3] and -0.0191 in the assay on G-361 (Melanoma). In addition, the “combination Emax” value in assay [2] is 1.

As for `NC1(C(=O)N[C@@H](CCO)c2ccc(Cl)cc2)CCN(c2ncnc3[nH]ccc23)CC1` [Capivasertib] + CCN(CCO)CCCOc1ccc2c(Nc3cc(CC(=O)Nc4cccc(F)c4)[nH]n3)ncnc2c1 [AZD2811] (first compound max 10 µM, 7x7, partner max 1 µM), the Bliss excess was -0.095 in assay [1], -0.0363 in assay [3] and 0.0426 in the assay on G-361 (Melanoma). For the same compound, in assay [2], the “combination Emax” value came to 0.585.

Take `COc1nnc2ccc(N3CCC(c4ccc(OCCN5CCN(C)C(=O)[C@H]5C)cc4)CC3)nn12` [AZD5153] + Cn1cnc2c(F)c(Nc3ccc(Br)cc3Cl)c(C(=O)NOCCO)cc21 [Selumetinib] (first compound max 1 µM, 7x7, partner max 10 µM): the values for the Bliss excess (in assay [1]; in assay [3]; in the assay with G-361 (Melanoma)) were -0.0046, -0.0408 and -0.107, respectively. Besides, in assay [2], the “combination Emax” value was 1.

On to `CC(=O)c1c(C)c2cnc(Nc3ccc(N4CCNCC4)cn3)nc2n(C2CCCC2)c1=O` [Palbociclib] + Cn1cnc2c(F)c(Nc3ccc(Br)cc3Cl)c(C(=O)NOCCO)cc21 [Selumetinib] (first compound max 10 µM, 7x7, partner max 10 µM), for which the Bliss excess in assay [1] is 0.0289; in assay [3] it was 0.0041; in the assay with G-361 (Melanoma) it was -0.0785. In addition, the “combination Emax” value in assay [2] was 0.935.

In the case of `CC(=O)c1c(C)c2cnc(Nc3ccc(N4CCNCC4)cn3)nc2n(C2CCCC2)c1=O` [Palbociclib] + CC1(C)CCC(CN2CCN(c3ccc(C(=O)NS(=O)(=O)c4ccc(NCC5CCOCC5)c([N+](=O)[O-])c4)c(Oc4cnc5[nH]ccc5c4)c3)CC2)=C(c2ccc(Cl)cc2)C1 [Venetoclax] (first compound max 10 µM, 7x7, partner max 1 µM), the Bliss excess is -0.0679 in assay [1], -0.0078 in assay [3] and 0.016 in the assay with G-361 (Melanoma). Besides, the “combination Emax” value in assay [2] came out at 0.585.

Take `NC1(C(=O)N[C@@H](CCO)c2ccc(Cl)cc2)CCN(c2ncnc3[nH]ccc23)CC1` [Capivasertib] + COc1nnc2ccc(N3CCC(c4ccc(OCCN5CCN(C)C(=O)[C@H]5C)cc4)CC3)nn12 [AZD5153] (first compound max 10 µM, 7x7, partner max 1 µM): the Bliss excess in assay [1] was -0.014; in assay [3] it was 0.0603; with G-361 (Melanoma), 0.0218. For the same compound, the “combination Emax” value in assay [2] was 1.

With `NC1(C(=O)N[C@@H](CCO)c2ccc(Cl)cc2)CCN(c2ncnc3[nH]ccc23)CC1` [Capivasertib] + CC(=O)c1c(C)c2cnc(Nc3ccc(N4CCNCC4)cn3)nc2n(C2CCCC2)c1=O [Palbociclib] (first compound max 10 µM, 7x7, partner max 10 µM), the results for the Bliss excess (in assay [1]; in assay [3]; in the assay with G-361 (Melanoma)) were 0.0866, -0.0475 and -0.0381, respectively. Moreover, in assay [2], the “combination Emax” value was 0.587.

Regarding `C[C@@H](c1ccc2nccn2c1)n1nnc2ncc(-c3cnn(C)c3)nc21` [Savolitinib] + CC1(C)CCC(CN2CCN(c3ccc(C(=O)NS(=O)(=O)c4ccc(NCC5CCOCC5)c([N+](=O)[O-])c4)c(Oc4cnc5[nH]ccc5c4)c3)CC2)=C(c2ccc(Cl)cc2)C1 [Venetoclax] (first compound max 1 µM, 7x7, partner max 1 µM), the Bliss excess is -0.0358 in assay [1], -0.0334 in assay [3] and -0.0764 in the assay with G-361 (Melanoma). Besides, the “combination Emax” value in assay [2] was found to be 0.154.

Consider `COc1cccc(OCCCN)c1-c1cc(Nc2cnc(C#N)cn2)n[nH]1` [Prexasertib] + C=CCn1c(=O)c2cnc(Nc3ccc(N4CCN(C)CC4)cc3)nc2n1-c1cccc(C(C)(C)O)n1 [AZD1775] (first compound max 1 µM, partner max 1 µM), for which the Bliss excess is -0.0153 in assay [3] and 0.0806 with G-361 (Melanoma).

As to `COc1cccc2c1C(=O)c1c(O)c3c(c(O)c1C2=O)C[C@@](O)(C(=O)CO)C[C@@H]3O[C@H]1C[C@H](N)[C@H](O)[C@H](C)O1` [Doxorubicin] + Cc1cc2ncnn2cc1Nc1ncc2c(n1)n(C1CCOCC1)c(=O)n2C [AZD7648] (first compound max 1 µM, 7x7, partner max 10 µM), the Bliss excess in assay [3] stood at 0.0291; in the assay with G-361 (Melanoma), 0.0791.

Turning to `CCc1c2c(nc3ccc(O)cc13)-c1cc3c(c(=O)n1C2)COC(=O)[C@]3(O)CC` [SN-38] + O=C(c1cc(Cc2n[nH]c(=O)c3ccccc23)ccc1F)N1CCN(C(=O)C2CC2)CC1 [Olaparib] (first compound max 0.3 µM, 7x7, partner max 10 µM), the Bliss excess in assay [3] was -0.0199; in the assay with G-361 (Melanoma), 0.0322.

For `COc1cccc(OCCCN)c1-c1cc(Nc2cnc(C#N)cn2)n[nH]1` [Prexasertib] + C[C@@H]1COCCN1C2=NC(=NC(=C2)C3(CC3)[S@](=N)(=O)C)C4=C5C=CNC5=NC=C4 [AZD6738] (first compound max 1 µM, 7x7, partner max 10 µM), the Bliss excess in assay [3] is -0.0632; with G-361 (Melanoma), 0.045.
